Each molecule was assayed on HCV 1b-377-neo replicon cells (assay: HCV replicon assay (HCV 1b-377-neo replicon cells)). Settings: Hepatitis C virus, read-out: EC50 range against HCV 1b (Range).
Assay type: cell-based, Hepatitis C virus genotype 1b
Protocol: An HCV Replion assay was utilized in the present disclosure, and was prepared, conducted and validated as described in commonly owned PCT/US2006/022197 and in O'Boyle et. al. Antimicrob Agents Chemother. April 2005;49(4): 1346-53.
HCV 1b-377-neo replicon cells were used to test the currently described compound series as well as cells resistant to compound A due to a Y2065H mutation in NS5A (described in application PCT/US2006/022197). The compounds tested were determined to have more than 10-fold less inhibitory activity on cells resistant to compound A than wild-type cells indicating a related mechanism of action between the two compound series. Thus, the compounds of the present disclosure can be effective to inhibit the function of the HCV NS5A protein and are understood to be as effective in combinations as previously described in application PCT/US2006/022197 and commonly owned WO/04014852. Further, the compounds of the present disclosure can be effective against the HCV 1b genotype. It should also be understood that the compounds of the present disclosure can inhibit multiple genotypes of HCV. […] In one embodiment compounds of the present disclosure are active against the 1a, 1b, 2a, 2b, 3a, 4a, and 5a genotypes.

For `COC(=O)N[C@@H](C(=O)N1CCC[C@H]1c1ncc(-c2ccc(-c3ccc(-c4cnc([C@@H]5CCCN5C(=O)Cc5cccnc5)[nH]4)cn3)cc2)[nH]1)c1ccccc1` [Example 143, methyl ((1R)-2-oxo-1-phenyl-2-((2S)-2-(5-(4-(5-(2-((2S)-1-(3-pyridinylacetyl)-2-pyrrolidinyl)-1H-imidazol-5-yl)-2-pyridinyl)phenyl)-1H-imidazol-2-yl)-1-pyrrolidinyl)ethyl)carbamate], which EC50 is on record?
The EC50 was 10 to 999 pM.

How did the EC50 turn out when `COC(=O)N[C@@H](C(=O)N1CCC[C@H]1c1ncc(-c2ccc(-c3ccc(-c4cnc([C@@H]5CCCN5C(=O)N5CCOCC5)[nH]4)cn3)cc2)[nH]1)c1ccccc1` [Example 144, methyl((1R)-2-((2S)-2-(5-(4-(5-(2-((2S)-1-(4-morpholinylcarbonyl)-2-pyrrolidinyl)-1H-imidazol-5-yl)-2-pyridinyl)phenyl)-1H-imidazol-2-yl)-1-pyrrolidinyl)-2-oxo-1-phenylethyl)carbamate] was run?
Its EC50 is 10 to 999 pM.

For `COC(=O)N[C@@H](C(=O)N1CCC[C@H]1c1ncc(-c2ccc(-c3ccc(-c4cnc([C@@H]5CCCN5C(=O)[C@H](NC(=O)OC)c5ccccc5)[nH]4)cn3)nc2)[nH]1)c1ccccc1` [Example 145, dimethyl(2,2′-bipyridine-5,5′-diylbis(1H-imidazole-5,2-diyl(2S)-2,1-pyrrolidinediyl((1R)-2-oxo-1-phenyl-2,1-ethanediyl)))biscarbamate], which EC50 is on record?
The EC50 was 10 to 999 pM.

With `CN(C)[C@@H](C(=O)N1CCC[C@H]1c1ncc(-c2ccc(-c3ccc(-c4cnc([C@@H]5CCCN5C(=O)[C@@H](c5ccccc5)N(C)C)[nH]4)nc3)cc2)[nH]1)c1ccccc1` [Example 146, (1R)-2-((2S)-2-(5-(5-(4-(2-((2S)-1-((2R)-2-(dimethylamino)-2-phenylacetyl)-2-pyrrolidinyl)-1H-imidazol-5-yl)phenyl)-2-pyridinyl)-1H-imidazol-2-yl)-1-pyrrolidinyl)-N,N-dimethyl-2-oxo-1-phenylethanamine] as the molecule, how does the EC50 read?
The EC50 was 10 to 999 pM.

Which EC50 does the source give for `COC(=O)N[C@@H](C(=O)N1CCC[C@H]1c1ncc(-c2ccc(-c3ccc(-c4cnc([C@@H]5CCCN5C(=O)[C@H](NC(=O)OC)c5ccccc5)[nH]4)nc3)cc2)[nH]1)c1ccccc1` [Example 147, methyl((1R)-2-((2S)-2-(5-(5-(4-(2-((2S)-1-((2R)-2-((methoxycarbonyl)amino)-2-phenylacetyl)-2-pyrrolidinyl)-1H-imidazol-5-yl)phenyl)-2-pyridinyl)-1H-imidazol-2-yl)-1-pyrrolidinyl)-2-oxo-1-phenylethyl)carbamate] here?
Its EC50 is 10 to 999 pM.

Which EC50 does the source give for `CN(C)[C@@H](C(=O)N1CSC[C@H]1c1ncc(-c2ccc(-c3ccc(-c4cnc([C@@H]5CSCN5C(=O)[C@@H](c5ccccc5)N(C)C)[nH]4)cc3)cc2)[nH]1)c1ccccc1` [Example 148, (1R,1′R)-2,2′-(4,4′-biphenyldiylbis(1H-imidazole-5,2-diyl(4R)-1,3-thiazolidine-4,3-diyl))bis(N,N-dimethyl-2-oxo-1-phenylethanamine)] here?
The EC50 was 1000 to 99000 pM.

`CN(C)[C@@H](C(=O)N1CCC[C@H]1c1ncc(-c2ccc(-c3ncc(-c4cnc([C@@H]5CCCN5C(=O)[C@@H](c5ccccc5)N(C)C)[nH]4)cn3)cc2)[nH]1)c1ccccc1` [Example 152j-1, (1R)-2-((2S)-2-(5-(2-(4-(2-((2S)-1-((2R)-2-(dimethylamino)-2-phenylacetyl)-2-pyrrolidinyl)-1H-imidazol-5-yl)phenyl)-5-pyrimidinyl)-1H-imidazol-2-yl)-1-pyrrolidinyl)-N,N-dimethyl-2-oxo-1-phenylethanamine] was tested. Which EC50 did it give?
The EC50 was 1000 to 99000 pM.

For `COC(=O)N[C@@H](C(=O)N1CCC[C@H]1c1ncc(-c2ccc(-c3ncc(-c4cnc([C@@H]5CCCN5C(=O)[C@H](NC(=O)OC)c5ccccc5)[nH]4)cn3)cc2)[nH]1)c1ccccc1` [Example 152j-2, methyl ((1R)-2-((2S)-2-(5-(2-(4-(2-((2S)-1-((2R)-2-((methoxycarbonyl)a-mino)-2-phenylacetyl)-2-pyrrolidinyl)-1H-imidazol-5-yl)phenyl)-5-pyrimidinyl)-1H-imidazol-2-yl)-1-pyrrolidinyl)-2-oxo-1-phenylethyl)carba-mate], which EC50 is on record?
The EC50 was 10 to 999 pM.

`COC(=O)N[C@@H](C(=O)N1CCC[C@H]1c1ncc(-c2ccc(-c3ncc(-c4cnc([C@@H]5CCCN5C(=O)Cc5cccnc5)[nH]4)cn3)cc2)[nH]1)c1ccccc1` [Example 152j-3, methyl ((1R)-2-oxo-1-phenyl-2-((2S)-2-(5-(4-(5-(2-((2S)-1-(3-pyridinylacetyl)-2-pyrrolidinyl)-1H-imidazol-5-yl)-2-pyrimidinyl)phenyl)-1H-imidazol-2-yl)-1-pyrrolidinyl)ethyl)car-bamate] was tested. Which EC50 did it give?
Its EC50 is 10 to 999 pM.

For `O=C([C@@H](c1ccccc1)N1CCCCC1)N1CCC[C@H]1c1ncc(-c2ccc(-c3ncc(-c4cnc([C@@H]5CCCN5C(=O)[C@@H](c5ccccc5)N5CCCCC5)[nH]4)cn3)cc2)[nH]1` [Example 152j-5, 5-(2-((2S)-1-((2R)-2-phenyl-2-(1-piperidinyl)acetyl)-2-pyrrolidinyl)-1H-imidazol-5-yl)-2-(4-(2-((2S)-1-((2R)-2-phenyl-2-(1-piperidinyl)acetyl)-2-pyrrolidinyl)-1H-imidazol-4-yl)phenyl)pyrimidine], which EC50 is on record?
Its EC50 is 10 to 999 pM.

`C[C@@H](c1ncc(-c2ccc(-c3ncc(-c4cnc([C@@H]5CCCN5C(=O)[C@@H](c5ccccc5)N5CCCCC5)[nH]4)cn3)cc2)[nH]1)N(C)C(=O)[C@@H](c1ccccc1)N1CCCCC1` [Example 152j-6, (2R)-N-methyl-2-phenyl-N-((1S)-1-(4-(4-(5-(2-((2S)-1-((2R)-2-phenyl-2-(1-piperidinyl)acetyl)-2-pyrrolidinyl)-1H-imidazol-5-yl)-2-pyrimidinyl)phenyl)-1H-imidazol-2-yl)ethyl)-2-(1-piperidinyl)acetamide] was tested. Which EC50 did it give?
The EC50 was 10 to 999 pM.

For `CN(C)[C@@H](C(=O)N1CCC[C@H]1c1ncc(-c2ccc(-c3cnc(-c4cnc([C@@H]5CCCN5C(=O)[C@@H](c5ccccc5)N(C)C)[nH]4)cn3)cc2)[nH]1)c1ccccc1` [Example 152j-7, (1R)-2-((2S)-2-(5-(5-(4-(2-((2S)-1-((2R)-2-(dimethylamino)-2-phenylacetyl)-2-pyrrolidinyl)-1H-imidazol-5-yl)phenyl)-2-pyrazinyl)-1H-imidazol-2-yl)-1-pyrrolidinyl)-N,N-dimethyl-2-oxo-1-phenylethanamine], which EC50 is on record?
Its EC50 is 1000 to 99000 pM.

With `COC(=O)N[C@@H](C(=O)N1CCC[C@H]1c1ncc(-c2ccc(-c3cnc(-c4cnc([C@@H]5CCCN5C(=O)[C@H](NC(=O)OC)c5ccccc5)[nH]4)cn3)cc2)[nH]1)c1ccccc1` [Example 152j-8, methyl ((1R)-2-((2S)-2-(5-(5-(4-(2-((2S)-1-((2R)-2-((methoxycarbonyl)a-mino)-2-phenylacetyl)-2-pyrrolidinyl)-1H-imidazol-5-yl)phenyl)-2-pyrazinyl)-1H-imidazol-2-yl)-1-pyrrolidinyl)-2-oxo-1-phenylethyl)carbamate] as the molecule, how does the EC50 read?
The EC50 was 10 to 999 pM.

Which EC50 does the source give for `CN(C)[C@@H](C(=O)N1CCC[C@H]1c1ncc(-c2ccc(-c3ccc(-c4cnc([C@@H]5CCCN5C(=O)[C@@H](c5ccccc5)N(C)C)[nH]4)nn3)cc2)[nH]1)c1ccccc1` [Example 152j-9, (1R)-2-((2S)-2-(5-(6-(4-(2-((2S)-1-((2R)-2-(dimethylamino)-2-phenylacetyl)-2-pyrrolidinyl)-1H-imidazol-5-yl)phenyl)-3-pyridazinyl)-1H-imidazol-2-yl)-1-pyrrolidinyl)-N,N-dimethyl-2-oxo-1-phenylethanamine] here?
The EC50 was 1000 to 99000 pM.

For `COC(=O)N[C@@H](C(=O)N1CCC[C@H]1c1ncc(-c2ccc(-c3ccc(-c4cnc([C@@H]5CCCN5C(=O)[C@H](NC(=O)OC)c5ccccc5)[nH]4)nn3)cc2)[nH]1)c1ccccc1` [Example 152j-10, methyl ((1R)-2-((2S)-2-(5-(6-(4-(2-((2S)-1-((2R)-2-((methoxycarbonyl)a-mino)-2-phenylacetyl)-2-pyrrolidinyl)-1H-imidazol-5-yl)phenyl)-3-pyridazinyl)-1H-imidazol-2-yl)-1-pyrrolidinyl)-2-oxo-1-phenylethyl) carba-mate], which EC50 is on record?
The EC50 was 1000 to 99000 pM.

Which EC50 does the source give for `C[C@H](NC(=O)[C@@H](c1ccccc1)N(C)C)c1ncc(-c2ccc(-c3ccc(-c4cnc([C@@H]5CCCN5C(=O)[C@@H](c5ccccc5)N(C)C)[nH]4)cn3)cc2)[nH]1` [Example 152j-11, (2R)-2-(dimethylamino)-N-((1S)-1-(5-(4-(5-(2-((2S)-1-((2R)-2-(dimethylamino)-2-phenylacetyl)-2-pyrrolidinyl)-1H-imidazol-5-yl)-2-pyridinyl)phenyl)-1H-imidazol-2-yl)ethyl)-2-phenylacetamide] here?
The EC50 was 10 to 999 pM.

`COC(=O)N[C@@H](C(=O)N[C@@H](C)c1ncc(-c2ccc(-c3ccc(-c4cnc([C@@H]5CCCN5C(=O)[C@H](NC(=O)OC)c5ccccc5)[nH]4)cn3)cc2)[nH]1)c1ccccc1` [Example 152j-12, methyl ((1R)-2-((2S)-2-(5-(6-(4-(2-((1S)-1-(((2R)-2-((methoxycarbonyl)a-mino)-2-phenyl-acetyl)amino)eth-yl)-1H-imidazol-5-yl)phenyl)-3-pyridinyl)-1H-imidazol-2-yl)-1-pyrrolidinyl)-2-oxo-1-phenylethyl)carbamate] was tested. Which EC50 did it give?
Its EC50 is 10 to 999 pM.

`C[C@H](NC(=O)[C@@H](c1ccccc1)N(C)C)c1ncc(-c2ccc(-c3ccc(-c4cnc([C@@H]5CCCN5C(=O)[C@@H](c5ccccc5)N(C)C)[nH]4)nn3)cc2)[nH]1` [Example 152j-13, (2R)-2-(dimethylamino)-N-((1S)-1-(5-(4-(6-(2-((2S)-1-((2R)-2-(dimethylamino)-2-phenylacetyl)-2-pyrrolidinyl)-1H-imidazol-5-yl)-3-pyridazinyl)phenyl)-1H-imidazol-2-yl)ethyl)-2-phenylacetamide] was tested. Which EC50 did it give?
Its EC50 is 1000 to 99000 pM.

Reference: patent US7659270B2, “Hepatitis C virus inhibitors” (Bristol-Myers Squibb Company, priority 2006, dated 2010)
